# Laboratory results from patent US20100069340A1, “PHARMACEUTICAL COMPOSITIONS OF AN SRC KINASE INHIBITOR AND AN AROMATASE INHIBITOR” (Wyeth, priority 2008, published 2010).
# Tested on: ER
# Assay: ER signaling in MCF-7 cells (ERE-tk-luciferase, ERα levels)
# Format: cell-based
# Procedure: Radis Procedure 2484, MCF-7 model was used for the measurement of in vitro estrogenic activity. MCF-7 cells were passaged twice a week in D-MEM/F-12 medium containing 10% (v/v) heat-inactivated fetal bovine serum, 1% (v/v) Penicillin-Streptomycin, and 2 mM glutaMax-1. The cells were plated with growth medium at 25,000/well into 96 well plates and incubated at 37° C. overnight.
# The cells were infected for 2 hr at 37° C. with 50 μl/well of a 1:10 dilution of adenovirus 5-ERE-tk-luciferase in phenol red-free D-MEM/F-12 medium containing 10% (v/v) heat-inactived charcoal-stripped fetal bovine serum, 1% (v/v) Penicillin-Streptomycin, 2 mM glutaMax-1, 1 mM sodium pyruvate. The wells are then washed once with 150 μl of experimental medium. Finally, the cells are treated for 24 hr at 37° C. in replicates of 8 wells/treatment with 150 μl/well of vehicle (<0.1% v/v DMSO) or compound that is diluted >1000-fold into experimental medium. SKI-606 was tested in a dose response assay in the presence of 0.1 nM 17β-estradiol to stimulate ERE-luc.
# After treatment, the cells are lysed on a shaker for 15 min with 25 μl/well of 1× cell culture lysis reagent (Promega Corporation). The cell lysates (20 μl) were transferred to a 96 well luminometer plate, and luciferase activity were measured in a MicroLumat LB 96 P luminometer (EG & G Berthold) using 100 μl/well of luciferase substrate (Promega Corporation). […]
compound,measurement,value
COc1cc(Nc2c(C#N)cnc3cc(OCCCN4CCN(C)CC4)c(OC)cc23)c(Cl)cc1Cl [bosutinib],genomic and non-genomic signaling by ER,inhibits both genomic and non-genomic signaling by ER
